{"source": "ChEMBL document CHEMBL1201862", "about": "“PubChem BioAssay data set” (2004)", "key": {"[1]": {"assay": "T. cruzi growth inhibition in host cells, dose response, cell-based, plate reader, dry powder, set 2 (AID 652275)", "format": "functional"}, "[2]": {"assay": "T. cruzi intracellular amastigote growth inhibition, dose response, imaging, CA-I/72 strain, bovine embryo skeletal muscle, dry powder (AID 651885)", "format": "functional, cell-based"}, "Protein Wnt-3a": {"molecular_target": "Protein Wnt-3a (Mus musculus, UniProt P27467)", "sequence (P27467 whole entry)": "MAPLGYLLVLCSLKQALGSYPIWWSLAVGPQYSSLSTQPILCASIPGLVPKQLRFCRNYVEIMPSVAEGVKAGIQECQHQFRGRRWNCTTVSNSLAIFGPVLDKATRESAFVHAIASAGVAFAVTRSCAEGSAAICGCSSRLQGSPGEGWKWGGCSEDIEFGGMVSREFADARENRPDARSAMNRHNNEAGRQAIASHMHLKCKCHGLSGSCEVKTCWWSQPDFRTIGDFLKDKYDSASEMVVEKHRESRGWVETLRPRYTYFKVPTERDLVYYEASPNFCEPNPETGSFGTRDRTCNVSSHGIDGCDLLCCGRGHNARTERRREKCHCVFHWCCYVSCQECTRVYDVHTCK", "assay": "SAR analysis of small molecule antagonists of Gli-SUFU in a Wnt3a luminescent reporter assay.", "format": "functional"}, "[3]": {"molecular_target": "T1, Sentrin-specific protease 8 (Homo sapiens, UniProt Q96LD8)", "T1 sequence (Q96LD8 whole entry)": "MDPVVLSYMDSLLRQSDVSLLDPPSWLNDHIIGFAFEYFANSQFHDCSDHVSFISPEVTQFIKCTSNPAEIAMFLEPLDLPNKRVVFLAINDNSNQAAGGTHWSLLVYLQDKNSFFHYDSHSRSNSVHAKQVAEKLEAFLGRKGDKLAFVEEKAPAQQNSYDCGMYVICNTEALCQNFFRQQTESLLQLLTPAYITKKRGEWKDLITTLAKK", "format": "functional"}, "[4]": {"molecular_target": "T1, Sentrin-specific protease 8", "format": "functional", "remark": "listed apart in the source"}, "Caspase-3": {"molecular_target": "T2, Caspase-3 (Homo sapiens, UniProt P42574)", "T2 sequence (P42574 whole entry)": "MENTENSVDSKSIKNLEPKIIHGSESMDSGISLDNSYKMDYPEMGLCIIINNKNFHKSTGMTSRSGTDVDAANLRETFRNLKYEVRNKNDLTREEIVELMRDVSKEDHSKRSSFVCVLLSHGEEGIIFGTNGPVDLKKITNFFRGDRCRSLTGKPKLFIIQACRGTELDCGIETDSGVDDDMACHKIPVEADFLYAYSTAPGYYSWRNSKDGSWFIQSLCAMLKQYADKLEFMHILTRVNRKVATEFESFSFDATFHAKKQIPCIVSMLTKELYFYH", "assay": "Dose-response confirmation of uHTS inhibitor hits of Sentrin-Specific Protease 8 in a Caspase-3 Fluorescence assay.", "format": "functional"}, "[5]": {"assay": "Cytotoxicity screening for potential Inhibitors of Bacterial Capsule Biogenesis (4).", "format": "functional"}, "Paired box protein Pax-8": {"molecular_target": "Paired box protein Pax-8 (Homo sapiens, UniProt Q06710)", "sequence (Q06710 whole entry)": "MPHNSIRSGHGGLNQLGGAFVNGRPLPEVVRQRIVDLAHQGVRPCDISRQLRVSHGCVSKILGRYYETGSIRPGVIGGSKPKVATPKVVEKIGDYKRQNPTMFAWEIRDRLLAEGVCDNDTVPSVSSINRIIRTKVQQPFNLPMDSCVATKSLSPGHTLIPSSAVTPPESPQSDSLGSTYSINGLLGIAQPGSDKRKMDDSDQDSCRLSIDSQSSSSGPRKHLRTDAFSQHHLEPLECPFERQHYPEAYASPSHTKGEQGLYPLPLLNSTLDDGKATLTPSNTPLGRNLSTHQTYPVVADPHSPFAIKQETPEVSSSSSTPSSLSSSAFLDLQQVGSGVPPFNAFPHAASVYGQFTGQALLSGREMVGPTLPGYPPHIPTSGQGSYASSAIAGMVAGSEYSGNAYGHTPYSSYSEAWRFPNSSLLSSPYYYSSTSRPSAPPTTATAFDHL", "assay": "inhibitors of PAX8-driven TPO luciferase reporter, dose response, RMG-I cells, cherry-pick (AID 687027);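 also: luciferase reporter driven by Pax8 target thyroperoxidase promoter measured by SteadyGlo luminescence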", "format": "functional, cell-based"}, "[6]": {"assay": "IOSE-T80 ovarian epithelial cell cytotoxicity, dose response, cytotoxicity control for PAX8 inhibitor project, plate reader, dry powder samples (AID 743045)", "format": "functional, cell-based"}, "[7]": {"assay": "A2780 ovarian cancer cell cytotoxicity, dose response, cytotoxicity control, plate reader, dry powder samples (AID 743046)", "format": "functional, cell-based"}, "[8]": {"assay": "inhibitors of CMV-promoter luciferase reporter, dose response, counter-screen for Pax8 inhibitor project, cell-based, HEK293, luminescence, dry powder (AID 743020)", "format": "functional"}, "[9]": {"assay": "NIH:OVCAR-3 ovarian cancer cell cytotoxicity, dose response, PAX8 inhibitor project, plate reader, dry powder samples (AID 743044)", "format": "functional, cell-based"}, "[10]": {"assay": "non-specific cell cytotoxicity, dose response, cytotoxicity control for PAX8 inhibitor project, plate reader, dry powder samples (AID 743021)", "format": "functional, cell-based"}, "[11]": {"assay": "cytotoxicity in OVCAR8 ovarian cancer cells, dose response, PAX8 project, cell-based, plate reader, dry powder samples (AID 743197)", "format": "functional", "conditions": "OVCAR-8"}, "[12]": {"molecular_target": "T3, Methionyl-tRNA synthetase, putative (Trypanosoma brucei brucei, UniProt Q38C91)", "T3 sequence (Q38C91 whole entry)": "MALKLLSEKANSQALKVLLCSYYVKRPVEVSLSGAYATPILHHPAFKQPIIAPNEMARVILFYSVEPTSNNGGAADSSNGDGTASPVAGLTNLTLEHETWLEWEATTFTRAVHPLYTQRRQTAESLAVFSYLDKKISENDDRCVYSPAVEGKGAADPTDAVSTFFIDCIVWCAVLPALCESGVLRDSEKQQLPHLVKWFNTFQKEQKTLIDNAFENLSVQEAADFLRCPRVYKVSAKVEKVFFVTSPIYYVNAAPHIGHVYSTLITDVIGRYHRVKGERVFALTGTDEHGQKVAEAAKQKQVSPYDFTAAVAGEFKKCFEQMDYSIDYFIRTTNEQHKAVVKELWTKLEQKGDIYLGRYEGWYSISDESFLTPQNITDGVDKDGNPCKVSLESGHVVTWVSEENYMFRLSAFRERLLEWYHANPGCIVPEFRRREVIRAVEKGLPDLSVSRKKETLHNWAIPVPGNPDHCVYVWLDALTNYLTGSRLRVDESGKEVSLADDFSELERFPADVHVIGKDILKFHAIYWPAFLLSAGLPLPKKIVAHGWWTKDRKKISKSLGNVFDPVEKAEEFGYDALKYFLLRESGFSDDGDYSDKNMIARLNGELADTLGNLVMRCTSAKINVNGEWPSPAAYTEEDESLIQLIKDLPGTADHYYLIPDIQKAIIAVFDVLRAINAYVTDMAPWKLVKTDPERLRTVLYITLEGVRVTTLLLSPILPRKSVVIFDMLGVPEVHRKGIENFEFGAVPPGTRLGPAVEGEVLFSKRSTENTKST", "format": "functional, Trypanosoma brucei brucei strain 927/4 GUTat10.1"}, "[13]": {"assay": "Counterscreen for inhibitors of Trypanosoma brucei methionyl tRNA synthetase (MetRS): Luminescence-based cell-based high throughput dose response assay to identify compounds that are cytotoxic to Jurkat human T lymphocyte cells.", "format": "functional"}, "[14]": {"molecular_target": "T3, Methionyl-tRNA synthetase, putative", "format": "functional, Trypanosoma brucei brucei strain 927/4 GUTat10.1", "remark": "listed apart in the source"}, "Protein S100-A4": {"molecular_target": "Protein S100-A4 (Homo sapiens, UniProt P26447)", "sequence (P26447 whole entry)": "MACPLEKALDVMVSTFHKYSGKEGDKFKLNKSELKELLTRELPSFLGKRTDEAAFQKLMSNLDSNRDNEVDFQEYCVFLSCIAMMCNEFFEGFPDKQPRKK", "assay": "S100A4-myosin IIA binding inhibitor potency, dose response, biochemical, fluorescence polarization, cherry-picked hits (AID 687001)", "format": "functional"}, "[15]": {"assay": "Luminescence-based cell-based high throughput dose response assay to identify activators of the DAF-12 from the parasite S. stercoralis (ssDAF-12).", "format": "functional"}, "Cytochrome P450 1A2": {"molecular_target": "T4, Cytochrome P450 1A2 (Homo sapiens, UniProt P05177)", "T4 sequence (P05177 whole entry)": "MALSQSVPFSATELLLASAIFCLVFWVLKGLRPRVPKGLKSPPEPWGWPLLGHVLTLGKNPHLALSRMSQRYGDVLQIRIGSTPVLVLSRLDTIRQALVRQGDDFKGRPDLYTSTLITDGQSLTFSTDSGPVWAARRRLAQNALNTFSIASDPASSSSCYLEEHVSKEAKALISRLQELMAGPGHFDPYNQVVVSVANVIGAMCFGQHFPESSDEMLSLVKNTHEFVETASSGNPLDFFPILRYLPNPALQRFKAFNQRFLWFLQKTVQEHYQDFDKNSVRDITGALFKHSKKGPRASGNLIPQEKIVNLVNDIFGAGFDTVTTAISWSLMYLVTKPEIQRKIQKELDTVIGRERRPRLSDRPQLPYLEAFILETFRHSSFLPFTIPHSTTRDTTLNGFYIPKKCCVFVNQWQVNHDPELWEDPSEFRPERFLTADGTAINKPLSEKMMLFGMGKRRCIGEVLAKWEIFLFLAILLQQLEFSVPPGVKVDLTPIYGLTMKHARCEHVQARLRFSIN"}}, "note": "Activity calls are given as the source filed them."}
{"compound": "C[C@@H]1CN([C@@H](C)CO)C(=O)c2cc(-c3cncnc3)cnc2O[C@H]1CN(C)Cc1ccc(Oc2ccccc2)cc1", "values": [{"measurement": "AC50", "setting": "[1]", "result": "0.403 µM (active)"}, {"measurement": "IC50", "setting": "[2]", "result": "> 20 µM (inactive)"}]}
{"compound": "CC(C)CNc1cc(NC(=O)c2cccc(F)c2)ncn1", "values": [{"measurement": "IC50", "setting": "Protein Wnt-3a", "result": "> 21.8 µM (inactive)"}]}
{"compound": "COc1ccc(NC(=O)[C@@H]2[C@@H]3C(=O)N(C4CCCCC4)C(=O)[C@@H]3C3c4ccccc4C=CN32)cc1", "note": "(stereo partly specified)", "values": [{"measurement": "IC50", "setting": "[3]", "result": "16.3 µM (active)"}, {"measurement": "IC50", "setting": "[4]", "result": "4.79 µM (active)"}, {"measurement": "IC50", "setting": "Caspase-3", "result": "10.8 µM (active)"}]}
{"compound": "CC(C)(C)OC(=O)Nc1nc2ccc(C(=O)Nc3ccnc(Br)c3)cc2s1", "values": [{"measurement": "CC50", "setting": "[5]", "result": "> 300 µM (inactive)"}]}
{"compound": "C[C@@H]1CN([C@H](C)CO)C(=O)c2cc(NC(=O)Nc3ccccc3)ccc2O[C@@H](C)CCCCO[C@@H]1CN(C)Cc1ccc(Cl)c(Cl)c1", "values": [{"measurement": "AC50", "setting": "Paired box protein Pax-8", "result": "4.45 µM (active)"}, {"measurement": "AC50", "setting": "[6]", "result": "44.5 µM (active)"}, {"measurement": "AC50", "setting": "[7]", "result": "14.9 µM (active)"}, {"measurement": "AC50", "setting": "[8]", "result": "43.4 µM (active)"}, {"measurement": "AC50", "setting": "[9]", "result": "18.4 µM (active)"}, {"measurement": "AC50", "setting": "[10]", "result": "52.3 µM (active)"}, {"measurement": "AC50", "setting": "[11]", "result": "29.6 µM (active)"}]}
{"compound": "Cc1cc(C)c(O)c(-c2cc(C(=O)NCCc3ccc(S(N)(=O)=O)cc3)[nH]n2)c1", "values": [{"measurement": "IC50", "setting": "[12]", "result": "39.5 µM (inactive)"}, {"measurement": "IC50", "setting": "[13]", "result": "83.3 µM (inactive)"}, {"measurement": "IC50", "setting": "[14]", "result": "70.9 µM (inactive)"}]}
{"compound": "CC(=O)[C@@]1(O)Cc2c(O)c3c(c(O)c2[C@H](O[C@H]2C[C@H](N)[C@H](O)[C@H](C)O2)C1)C(=O)c1ccccc1C3=O", "values": [{"measurement": "AC50", "setting": "Protein S100-A4", "result": "0.412 µM (active)"}, {"measurement": "AC50", "setting": "Paired box protein Pax-8", "result": "3.77 µM (active)"}, {"measurement": "IC50", "setting": "[15]", "result": "> 67.5 µM (inactive)"}, {"measurement": "AC50", "setting": "Cytochrome P450 1A2", "result": "20 µM (inconclusive)"}]}
